“Also recorded” adds a separate entry of the source. Read-outs that look alike come from different tables or passages of the source.
Columns and labels:
Cb H-NOX = conditions: ref [11], cited from earlier work
Tt H-NOX = conditions: ref [11], cited from earlier work; for Kd / koff / kon: NO: 6c NO-heme-His complex
[1] = molecular target: full length sGC from Manduca sexta (Ms sGC); conditions: read-out: KD(CO), ref [27]; cited from earlier work
Vc H-NOX [2] = conditions: ref [9], cited from earlier work
ferrous So H-NOX = assay: Stopped-flow binding kinetics of gaseous ligands to ferrous So H-NOX; set-up: species or system Shewanella oneidensis; conditions: for kon: ferrous So H-NOX, room temperature, anaerobic, CO: 6c CO-heme-His complex
Ms sGC NT2 = conditions: read-out: KD(CO); Ms sGC NT2, lacking 48 residues from α-subunit N-terminus and the catalytic domains; ref [27]; cited from earlier work
Ns H-NOX = conditions: cited from earlier work; for Kd / koff / kon: ref [10],[18]
[3] = molecular target: β H-NOX/PAS subunit of Ms sGC; conditions: read-out: KD(CO); β H-NOX/PAS subunit alone; ref [27]; cited from earlier work
[4] = molecular target: soluble guanylyl cyclase (sGC); conditions: cited from earlier work; for Kd / koff / kon: ref [18]
Vc H-NOX [5] = assay: Gaseous ligand binding kinetics of Vc H-NOX; set-up: species or system Vibrio cholera; conditions: reacted with 600 µM O2; data not shown
[6] = calculated as koff/kon, NO: 6c NO-heme-His complex
[7] = NO: 6c NO-heme-His complex, O2: high pressure cell
[8] = Intermediate NO-heme--NO(−-His), estimated based on computer simulations
[9] = O2, estimated based on the sliding scale rule

For `[C-]#[O+]` [CO, carbon monoxide], the Kd (Cb H-NOX; NO: 6c NO-heme-His complex) is given as 670 nM, the koff (Cb H-NOX; NO: 6c NO-heme-His complex) is given as 1.0 s⁻¹ and the kon (Cb H-NOX; NO: 6c NO-heme-His complex) is given as 1.5e+06 M⁻¹ s⁻¹. For the same molecule, the Kd (Tt H-NOX) was 160 nM, the koff (Tt H-NOX) was 0.5 s⁻¹ and the kon (Tt H-NOX) was 3.3e+06 M⁻¹ s⁻¹. The Kd [1] was 50 to 100 µM, the Kd (Vc H-NOX [2]; NO: 6c NO-heme-His complex) was 0.77 µM and the koff (Vc H-NOX [2]; NO: 6c NO-heme-His complex) was 0.85 s⁻¹. For the same molecule, the kon (Vc H-NOX [2]; NO: 6c NO-heme-His complex) was 1.1e+06 M⁻¹ s⁻¹, the Kd (ferrous So H-NOX; [6]) was 0.85 µM and the kon (ferrous So H-NOX; NO: 6c NO-heme-His complex) was 820000 M⁻¹ s⁻¹. The Kd (Ms sGC NT2) was 50 to 100 µM, the Kd (Ns H-NOX; [7]) was 1.4 µM and the koff (Ns H-NOX; NO: 6c NO-heme-His complex) was 3.6 s⁻¹. For the same molecule, the kon (Ns H-NOX; NO: 6c NO-heme-His complex) was 3e+06 M⁻¹ s⁻¹, the Kd [3] was 0.2 µM and the Kd ([4]; NO: 6c NO-heme-His complex) was 260 µM. The koff ([4]; NO: 6c NO-heme-His complex) was 10.7 s⁻¹ and the kon ([4]; NO: 6c NO-heme-His complex) was 40000 M⁻¹ s⁻¹.
In the case of nitric oxide [NO], the koff (Cb H-NOX; 5c heme-NO complex) is given as 0.0011 s⁻¹, the kon (Cb H-NOX; [8]) is given as 1.8 × 10^7 ^‡ M^−1s^−1 and the Kd (Cb H-NOX; NO: 6c NO-heme-His complex) is given as 0.08 nM. For the same molecule, the koff (Cb H-NOX; NO: 6c NO-heme-His complex) was 0.012 s⁻¹, the kon (Cb H-NOX; NO: 6c NO-heme-His complex) was 1.5e+08 M⁻¹ s⁻¹ and the Kd (Cb H-NOX; read-out: KD(NO)(apparent), 5c heme-NO complex) was 0.0073 nM. For the same molecule, the Kd (Tt H-NOX) was 0.023 nM, the koff (Tt H-NOX) was 0.0034 s⁻¹ and the kon (Tt H-NOX) was 1.5e+08 M⁻¹ s⁻¹. The koff (Vc H-NOX [2]; 5c heme-NO complex) was 10^−3 – 10^−2 s^−1, the koff (Vc H-NOX [2]; [8]) was 4.5 × 10^3 ^‡ s^−1 and the kon (Vc H-NOX [2]; [8]) was 2.5 × 10^7 ^‡ M^−1s^−1. The Kd (Vc H-NOX [2]; NO: 6c NO-heme-His complex) was 0.00027 µM, the koff (Vc H-NOX [2]; NO: 6c NO-heme-His complex) was 0.3 s⁻¹ and the kon (Vc H-NOX [2]; NO: 6c NO-heme-His complex) was 1.1e+09 M⁻¹ s⁻¹. For the same molecule, the “koff,5c(NO)” value (ferrous So H-NOX; 5c heme-NO complex, CO displacement method) was 0.0013 s⁻¹, the “koff, dissociation rate of NO from the quaternary intermediate” value (ferrous So H-NOX; Intermediate NO-heme--NO(−-His), y-intercept of secondary plot) was “very small; also recorded: small” and the Kd (ferrous So H-NOX; [6]) was 0.00015 µM. For the same molecule, the kon (ferrous So H-NOX; NO: 6c NO-heme-His complex) was 1.5e+09 M⁻¹ s⁻¹, the “formation rate of the 5c heme-NO complex (D → E)” value (ferrous So H-NOX; not measured directly, significantly faster than kobs at 30 µM NO) was over 600 s⁻¹ and the Kd (Ns H-NOX; 2nd 6c NO-heme-His complex) was 0.8 µM. For the same molecule, the koff (Ns H-NOX; 2nd 6c NO-heme-His complex) was 1.9 s⁻¹, the kon (Ns H-NOX; 2nd 6c NO-heme-His complex) was 2.4e+06 M⁻¹ s⁻¹ and the Kd (Ns H-NOX; [7]) was 0.00017 µM. For the same molecule, the koff (Ns H-NOX; NO: 6c NO-heme-His complex) was 0.05 s⁻¹, the kon (Ns H-NOX; NO: 6c NO-heme-His complex) was 3e+08 M⁻¹ s⁻¹ and the koff ([4]; 5c heme-NO complex) was 10^−4 – 10^−3 s^−1. The koff ([4]; Intermediate NO-heme--NO(−-His)) was 26 s⁻¹, the Kd ([4]; NO: 6c NO-heme-His complex) was 0.054 µM and the koff ([4]; NO: 6c NO-heme-His complex) was 27 s⁻¹. For the same molecule, the kon ([4]; NO: 6c NO-heme-His complex) was 1.4e+08 M⁻¹ s⁻¹ and the “conversion rate from 6c NO complex to 5c NO-heme complex” value ([4]; ref [23]) was 8.5 s⁻¹.
In the case of `O=O` [O2], the Kd (Cb H-NOX; NO: 6c NO-heme-His complex) is listed as 53000 nM, the autoxidation rate (Cb H-NOX; reacted with 600 µM O2) is listed as 0.02 s⁻¹ and the Kd (Tt H-NOX) is listed as 44 nM. The koff (Tt H-NOX) was 1.9 s⁻¹, the kon (Tt H-NOX) was 4.3e+07 M⁻¹ s⁻¹ and the “autoxidation of oxyferrous heme” value (Tt H-NOX) was “no autoxidation is observed”. For the same molecule, the Kd (Vc H-NOX [2]; [9]) was about 1300 µM, the O2 binding (ferrous So H-NOX; O2-saturated buffer, final [O2] = 600 µM, no oxyferrous intermediate) was “does not bind O2” and the Kd (ferrous So H-NOX; [9]) was about 4500 µM. For the same molecule, the Kd (Ns H-NOX; [7]) was 13000 µM, the autoxidation rate (Ns H-NOX; ref [10]) was 1.4e-05 s⁻¹ and the autoxidation rate (Vc H-NOX [5]) was ~ 4 × 10^−3 s^−1.
